According to US8207135B2, “Compositions for and methods of enhancing the immune response to antigens” (Wittycell, priority 2007, dated 2012):

Assays:
[1] = tested on: Ova-specific target cells; assay: in vivo cytotoxic specific cell lysis assay (CD8+ T cell response) in immunized mice; set-up: species or system mouse; settings: for average Ova-specific cytotoxic response: Example 2, FIG. 2; for average Ova-specific cytotoxic response / average Ova-specific cell lysis / specific lysis of Ova-specific target cells in blood: IV; for average Ova-specific cytotoxic response / average OVA-specific cytotoxic response: 400 μg Ova with or without 1 μg adjuvant; for average Ova-specific cytotoxic response / average OVA-specific cytotoxic response / average Ova-specific cell lysis: day 11 blood; for average OVA-specific cytotoxic response: Example 2, FIG. 3, IM; for average Ova-specific cell lysis: Example 4, FIG. 6, 400 μg Ova with or without 1 μg adjuvant (PBS-57 new formulation); for percentage of specific lysis of the target cells by CD8+ T cells: Example 5 Experiment B, FIG. 8, 50 μg OVA with 10 ng adjuvant intramuscularly; for specific lysis of Ova-specific target cells in blood: Example 1, FIG. 1, 1 μg adjuvant with 50 μg Ova, day 11
[2] = tested on: IFNγ; assay: in vivo IFNγ release in sera by ELISA 24 hours after inoculation; set-up: species or system C57BL/6 mice; settings: Quantikine kit, FIG. 4
Experimental: To test the ability of the adjuvant test compounds to stimulate in vivo cytokine release, C57BL/6 mice were administered the compounds at different concentrations intravenously and the production of IFNγ in sera was measured 24 hours later by ELISA. Groups of 3 mice were inoculated intravenously (tail vein) on day 0 as follows: • Group 1: 100 μl of PBS alone • Group 2: 1 μg of αGalCer in 100 μl of PBS • Group 3: 100 ng of αGalCer in 100 μl of PBS • Group 4: 1 ng of αGalCer in 100 μl of PBS • Group 5: 0.1 ng of αGalCer in 100 μl of PBS • Group 6: 100 ng of αGalCer and 100 μg of Ova in 100 μl of PBS • Group 7: 1 μg of PBS-57 in 100 μl of PBS • Group 8: 100 ng of PBS-57 in 100 μl of PBS • Group 9: 1 ng of PBS-57 in 100 μl of PBS • Group 10: 0.1 ng of PBS-57 in 100 μl of PBS • Group 11: 100 ng of PBS-57 and 400 μg of Ova into 100 μl of PBS • Group 12: 1 μg of PBS-14 in 100 μl of PBS • Group 13: 100 ng of PBS-14 in 100 μl of PBS • Group 14: 1 ng of PBS-14 in 100 μl of PBS • Group 15: 0.1 ng of PBS-14 in 100 μl of PBS • Group 16: 100 ng of PBS-14 and 400 μg of Ova in 100 μl of PBS • Group 17: 1 μg of PBS-96 in 100 μl of PBS • Group 18: 100 ng of PBS-96 in 100 μl of PBS • Group 19: 1 ng of PBS-96 in 100 μl of PBS • Group 20: 0.1 ng of PBS-96 in 100 μl of PBS • Group 21: 100 ng of PBS-96 and 400 μg of Ova in 100 μl of PBS. 24 hours after inoculation, blood samples were collected from the mice and IFNγ levels were detected by ELISA kit. Two ELISA kits were used, Quantikine mouse IFNγ (RD systems) was used to test all samples and ELISA mIFNγ (Diaclone) was used to test group 1, 2, 3, 6, 7, 8, 11, 12, 13, 16, 17, 18 and 21. All sera were diluted before use in ELISA as follows:
Results are expressed as IFNγ concentration (pg/ml) in sera and take into account the dilution factor. FIG. 4 depicts results using the Quantikine mouse IFNγ kit by RD systems. FIG. 4A depicts results of IFNγ levels for mice immunized with PBS-57, FIG. 4B depicts results of IFNγ levels for mice immunized with PBS-14, FIG. 4C depicts results of IFNγ levels for mice immunized with PBS-96 and FIG. 4D depicts results of IFNγ levels for mice immunized with αGalCer. At 0.1 ng, all adjuvant candidates induce cytokine release, but mice immunized with αGalCer produced three- or four-fold less IFNγ than mice immunized with PBS-57, PBS-14 or PBS-96 (1540.57±397.53 pg/ml, 4398.05±880.86 pg/ml, 6669.31±1231.82 pg/ml, 5823.33±720.69 pg/ml respectively).
Another set of mice were used to compare the ability of adjuvant compounds to stimulate in vivo cytokine release by the method described above. Five groups of C57BL/6 mice were administered 100 ng of PBS-57, PBS-14, PBS-96, or PBS-11 in 100 μl PBS or 100 μl PBS alone intravenously. The production of IFNγ in sera was measured 24 hours later by ELISA. FIG. 5 depicts results for mice immunized with 100 ng of PBS-11, PBS-96, PBS-14 and PBS-57.

[3] = tested on: CD8+ T cells responsive to OVA; assay: SIINFEKL pentamer assay of OVA-specific CD8+ T cells (FACS); assay type: in vivo, mouse; settings: IM, days 0 and 14, blood day 21
Experimental: To verify the results obtained using the in vivo cytotoxicity assay described in the Examples above, similar experiments were performed and CD8+ T cell activation was determined by measuring the percentage of OVA-specific CD8+ T cells using a pentamer assay. Briefly, mice were injected intramuscularly with the indicated amounts of OVA and test adjuvant compound at either 1 μg or 100 ng per mouse, respectively on day 0 as follows:
Experiment A: • Group 1: 100 μl of PBS; • Group 2: 50 μg of Ova into 100 μl PBS; • Group 3: 50 μg of Ova with 1 μg αGalCer; • Group 4: 50 μg of Ova with 1 μg PBS-11 • Group 5: 50 μg of Ova with 1 μg PBS-14 • Group 6: 50 μg of Ova with 1 μg PBS-57 • Group 7: 50 μg of Ova with 1 μg PBS-96
Experiment B: • Group 1: 100 μl of PBS; • Group 2: 50 μg of Ova into 100 μl PBS; • Group 3: 50 μg of Ova with 100 ng αGalCer; • Group 4: 50 μg of Ova with 100 ng PBS-11 • Group 5: 50 μg of Ova with 100 ng PBS-14 • Group 6: 50 μg of Ova with 100 ng PBS-57 • Group 7: 50 μg of Ova with 100 ng PBS-96 A second injection was administered to the mice on day 14 and blood was collected from the mice on day 21. The lymphocytes were collected and analyzed by FACS analysis using H-2 K^b SIINFEKL pentamer and CD8 antibody to detect CD8+ T cells responsive to OVA.

[4] = tested on: OVA-specific IgG1; assay: OVA-specific IgG1 ELISA after intramuscular immunization; assay type: in vivo, mouse; settings: FIG. 11; IM, 50 μg OVA with 100 ng adjuvant, 14 days post-injection
Experimental: (§1) Mice (6 per group) were injected intramuscularly with 50 μg of OVA either alone or in combination with 100 ng of the indicated adjuvants (Freund's adjuvant was used as a positive control) as follows: • Group 1: […] of Ova with CFA/IFA (Positive control) • Group 2: 50 μg of Ova • Group 3: 50 μg of Ova and 100 ng of αGalCer • Group 4: 50 μg of Ova and 100 ng of PBS-11 • Group 5: 50 μg of Ova and 100 ng of PBS-14 • Group 6: 50 μg of Ova and 100 ng of PBS-57 • Group 7: 50 μg of Ova and 100 ng of PBS-96 At 14 days post-injection, blood samples were collected and ELISAs for IgG1 and IgG2a were performed using mouse monoclonal antibodies specific for OVA isotype IgG1 or IgG2a. The results are shown as the titer of the antibody in peripheral blood in ng/ml. The results for IgG1 are depicted in FIG. 11 and those for IgG2a are depicted in FIG. 12.

[5] = tested on: OVA specific IgG2a; assay: OVA-specific IgG2a ELISA after intramuscular immunization; assay type: in vivo, mouse; settings: FIG. 12; IM, 50 μg OVA with 100 ng adjuvant, 14 days post-injection
Experimental: as §1

[6] = Example 6 Experiment A, FIG. 9, 50 μg Ova with 1 μg adjuvant

CCCCCCCC/C=C\CCCCCCCCCCCCCC(=O)N[C@@H](CO[C@H]1O[C@H](CNC(C)=O)[C@H](O)[C@H](O)[C@H]1O)[C@H](O)[C@H](O)CCCCCCCCCCCCCC [PBS-57, reference compound]
average Ova-specific cytotoxic response [1]: 88.1±6.2%
average OVA-specific cytotoxic response [1]: 56.11±13.34%
average Ova-specific cell lysis [1]: 88.1±6.2%
percentage of specific lysis of the target cells by CD8+ T cells [1]: indistinguishable from the controls
IFNγ concentration in sera ([2]; 0.1 ng IV): 4398.05 ± 880.86 pg/mL
IFNγ concentration in sera ([2]; 1 ng IV): 11425.98 ± 833.04 pg/mL
IFNγ concentration in sera ([2]; 100 ng IV): 21432.76 ± 4312.76 pg/mL
IFNγ concentration in sera ([2]; 1 μg IV): 3353.45 ± 867.57 pg/mL
percentage of OVA specific CD8+ T cells [3, 6]: enhanced the percentage of OVA specific CD8+ T cells
OVA-specific IgG1 titer in peripheral blood [4]: able to elicit a robust IgG1 titer

CCCCCCCCCCCCCCCCCCCCCCCCCC(=O)N[C@@H](CO[C@H]1O[C@H](CNC(C)=O)[C@H](O)[C@H](O)[C@H]1O)[C@H](O)[C@H](O)CCCCCCCCCCCCCC [PBS-14]
specific lysis of Ova-specific target cells in blood [1]: resulted in cytotoxic lysis of Ova-specific target cells
average Ova-specific cytotoxic response [1]: 83.3±6.1%
average OVA-specific cytotoxic response [1]: 52.07±29.56%
average Ova-specific cell lysis [1]: 83.3±6.1%
enhancement of the CD8+ T cell response (specific lysis) at low doses ([1]; Example 5 Experiments A and B, FIGS. 7 and 8, 50 μg OVA with 100 ng or 10 ng adjuvant intramuscularly): unexpectedly better than other adjuvants
IFNγ concentration in sera ([2]; 0.1 ng IV): 6669.31 ± 1231.82 pg/mL
IFNγ concentration in sera ([2]; 1 ng IV): 7481.15 ± 3454.03 pg/mL
IFNγ concentration in sera ([2]; 100 ng IV): 19582.18 ± 3421.20 pg/mL
IFNγ concentration in sera ([2]; 1 μg IV): 16392.53 ± 5957.70 pg/mL
percentage of OVA specific CD8+ T cells [3, 6]: enhanced the percentage of OVA specific CD8+ T cells
percentage of OVA specific CD8+ T cells ([3]; Example 6 Experiment B, FIG. 10, 50 μg Ova with 100 ng adjuvant): surprisingly much better at enhancing the CD8+ T cell response
OVA-specific IgG1 titer in peripheral blood [4]: able to elicit a robust IgG1 titer
OVA specific IgG2a titer in peripheral blood [5]: about as well as Freund's adjuvant

CCCCCCCCCCCCCCCCCCCCCCCCCC(=O)N[C@@H](CO[C@H]1O[C@H](CNC(=O)CCCC[C@@H]2SC[C@@H]3NC(=O)N[C@@H]32)[C@H](O)[C@H](O)[C@H]1O)[C@H](O)[C@H](O)CCCCCCCCCCCCCC [PBS-11, reference compound]
specific lysis of Ova-specific target cells in blood [1]: did not result in specific lysis of cells
average Ova-specific cell lysis [1]: 32.3±2.5%
percentage of specific lysis of the target cells by CD8+ T cells [1]: indistinguishable from the controls
percentage of OVA specific CD8+ T cells [3, 6]: not as effective

CCCCCCCCCCCCCCCCCCCCCCCCCC(=O)N[C@@H](CO[C@H]1O[C@H](CO)[C@H](O)[C@H](O)[C@H]1O)[C@H](O)[C@H](O)CCCCCCCCCCCCCC [αGalCer, α-galactosyceramide, reference compound]
average Ova-specific cytotoxic response [1]: 79.9±0.8%
average OVA-specific cytotoxic response [1]: −5.85±11.01%
percentage of specific lysis of the target cells by CD8+ T cells [1]: indistinguishable from the controls
IFNγ concentration in sera ([2]; 0.1 ng IV): 1540.57 ± 397.53 pg/mL
IFNγ concentration in sera ([2]; 1 ng IV): 3802.99 ± 586.02 pg/mL
IFNγ concentration in sera ([2]; 100 ng IV): 7714.37 ± 3529.07 pg/mL
percentage of OVA specific CD8+ T cells [3, 6]: not as effective

B1: ovalbumin (protein, UniProt P01012 2-386, looked up)
Ovalbumin: GSIGAASMEFCFDVFKELKVHHANENIFYCPIAIMSALAMVYLGAKDSTRTQINKVVRFDKLPGFGDSIEAQCGTSVNVHSSLRDILNQITKPNDVYSFSLASRLYAEERYPILPEYLQCVKELYRGGLEPINFQTAADQARELINSWVESQTNGIIRNVLQPSSVDSQTAMVLVNAIVFKGLWEKAFKDEDTQAMPFRVTEQESKPVQMMYQIGLFRVASMASEKMKILELPFASGTMSMLVLLPDEVSGLEQLESIINFEKLTEWTSSNVMEERKIKVYLPRMKMEEKYNLTSVLMAMGITDVFSSSANLSGISSAESLKISQAVHAAHAEINEAGREVVGSAEAGVDAASVSEEFRADHPFLFCIKHIATNAVLFFGRCVSP
notes: nominal antigen, Ovalbumin grade VII, Sigma
average Ova-specific cytotoxic response [1]: 11.8±14.4%
average OVA-specific cytotoxic response [1]: 1.60±14.33%
average Ova-specific cell lysis [1]: 11.8±14.4%
